What all share (format): cell-based, human
Experiment [1] concerns HepG2 (hepatocellular carcinoma) cell line. The experiment in a line: CellTiter-Glo luminescent cell viability assay, HepG2. As to conditions: Homo sapiens; for EC50: HepG2 cell line, 72 h incubation, CellTiter-Glo, read-out: EC50, growth inhibition of HepG2; for viability at 4 µM / viability at 10 µM: HepG2, HepG, 72 h; for viability at 4 µM: compound at 4 μM; for viability at 10 µM: compound at 10 μM. Here is the method: (§1) All cell lines were maintained in medium containing 1% penicillin-streptomycin (Dutscher, P06-07100) and 10% Fetal Bovine Serum (Hyclone Dutscher, RZK35922) cultured at 37° C. with 5% CO2. HepG2 (hepatocellular carcinoma), cell line was cultured in Dulbecco's modified Eagle's medium low glucose (Gibco, 21885025), Huh7 (hepatocellular carcinoma), HCT-116 (colorectal carcinoma), PANC-1 (prancreatic carcinoma) and A375 (malignant melanoma) cell lines were cultured in Dulbecco's modified Eagle's medium (Dutscher, L0103). MOLM-14 (acute myeloid leukemia) cell line was maintained in MEM alpha medium (Gibco, 22561-021). 786-0 (renal adenocarcinoma) cell lines were maintained in RPMI 1640 medium (Dutscher, L0498).
(§2) Cell viability was measured using the CellTiter-Glo® luminescent cell viability assay as described by the manufacturer (Promega, Ref G7571) using an Infinite F200Pro luminometer (Tecan). Briefly, for adherent cells, cells were plated onto 96-well plates (white with clear bottom) in 90 μL of media per well and were allowed to grow overnight before the assay. For cells growing in suspension, cells were plated onto 96-well plates 1 h before the assay.
(§3) Compounds were resuspended in H2O or DMSO and added at different concentrations to each well, and cell cultures were incubated for 72 h. Each diluent (H2O or DMSO) were used as a control, and all compounds were tested in a constant percentage of H2O or DMSO. On the day of the reading, plates are equilibrated 30 min at room temperature before the addition of 100 μL of CellTiter-Glo® and luminescence was measured using an Infinite F200Pro (Tecan). % cell viability were expressed as a percentage of the signal obtained for cell cultures treated with diluent. EC50 values were determined as the dose of compound required to reduce luminescent values to 50% of the signal obtained for cell cultures treated with diluent. The experimental data were analyzed using a computer program, Graphpad Prism v5 (GraphPad Software, Inc. La Jolla, Calif.). All points were at least done in duplicate.
A general note: ATP-based viability assays read luminescence as a measure of living cells.

In experiment [2] the test system is 786-O (renal adenocarcinoma) cell line. Briefly: CellTiter-Glo luminescent cell viability assay, 786-O. As to conditions: Homo sapiens, 786-0; for EC50: 786-O cell line, 72 h incubation, CellTiter-Glo, read-out: EC50, growth inhibition of 786-O; for viability at 4 µM / viability at 10 µM: 786-O, 72 h; for viability at 4 µM: compound at 4 μM; for viability at 10 µM: compound at 10 μM. Here is the method: as §1, §2, §3

The test system of experiment [3] is MOLM-14 (acute myeloid leukemia) cell line. The experiment in a line: CellTiter-Glo luminescent cell viability assay, MOLM-14. The conditions noted are these: Homo sapiens; for EC50: MOLM-14 cell line, 72 h incubation, CellTiter-Glo, read-out: EC50, growth inhibition of MOLM-14; for viability at 4 µM: MOLM-14, compound at 4 μM; for viability at 4 µM / viability at 10 µM: 72 h; for viability at 10 µM: MOLM-14, compound at 10 μM. The procedure:
as §1, §2, §3

The test system of experiment [4] is Huh7 (hepatocellular carcinoma) cell line. The experiment in a line: CellTiter-Glo luminescent cell viability assay, Huh7. As to conditions: Homo sapiens, Huh-7; for EC50: Huh7 cell line, 72 h incubation, CellTiter-Glo, read-out: EC50, growth inhibition of Huh7; for viability at 4 µM: Huh7, compound at 4 μM; for viability at 4 µM / viability at 10 µM: 72 h; for viability at 10 µM: Huh7, compound at 10 μM. Here is the method:
as §1, §2, §3

Experiment [5] has as its system HCT-116 (colorectal carcinoma) cell line. Briefly: CellTiter-Glo luminescent cell viability assay, HCT-116. As to conditions: Homo sapiens; for EC50: HCT-116 cell line, 72 h incubation, CellTiter-Glo, read-out: EC50, growth inhibition of HCT-116; for viability at 4 µM: HCT-116, compound at 4 μM; for viability at 4 µM / viability at 10 µM: 72 h; for viability at 10 µM: HCT-116, compound at 10 μM. Here is the method:
as §1, §2, §3

The subject of experiment [6] is A375 (malignant melanoma) cell line. Briefly: CellTiter-Glo luminescent cell viability assay, A375. As to conditions: Homo sapiens, A-375; for EC50: A375 cell line, 72 h incubation, CellTiter-Glo, read-out: EC50, growth inhibition of A375; for viability at 4 µM: A375, compound at 4 μM; for viability at 4 µM / viability at 10 µM: 72 h; for viability at 10 µM: A375, compound at 10 μM. The procedure: as §1, §2, §3

Structures can show the parent of a compound that is named as a salt.

A word on the EC50: it is the concentration needed to bring the measured effect to its halfway point. Consider `CN1CCN(C(=O)C2CCN(c3cc(NCc4ccc(Cl)cc4)nc4ccccc34)CC2)CC1` [Compound 1656, 2-(4-chlorobenzylamino)-4-[4-(4-methylpiperazine-1-carbonyl)-piperidin-1-yl]-quinoline hydrochloride], for which the EC50 in experiment [1], in experiment [2], in experiment [3], in experiment [4], in experiment [5] and in experiment [6] was 0.5 to 5 µM throughout.

`Cc1ccnc(Nc2ccc(Nc3nc4ccccc4c(N4CCC(NC(C)(C)C)CC4)c3C#N)cc2)n1` [Compound 532CN, 2-[4-(4-methylpyrimidin-2-ylamino)phenylamino]-3-cyano-4-(4-tert-butylaminopiperidin-1-yl)quinoline]: the EC50 in experiment [1] is 5 to 10 µM; in experiment [2], 0.5 to 5 µM; in experiment [3], 5 to 10 µM; in experiment [4] it was 5 to 10 µM; in experiment [5], 0.5 to 5 µM; in experiment [6], 0.5 to 5 µM.

As for `Clc1ccc(CNc2cc(N3CC[C@H](Oc4ccccn4)C3)c3ccccc3n2)cc1` [Compound 3098, (3S) 2-(4-chlorobenzylamino)-4-[3-(pyridin-2-yloxy)pyrrolidin-1-yl]quinoline hydrochloride], the EC50 in experiment [1], in experiment [2], in experiment [3], in experiment [4], in experiment [5] and in experiment [6] was 0.5 to 5 µM in each case.

With `Clc1ccc(CNc2cc(N3CCC(Oc4ccccc4)CC3)c3ccccc3n2)cc1` [Compound 2940, 2-(4-chlorobenzylamino)-4-(4-phenoxypiperidin-1-yl)-quinoline hydrochloride], the EC50 in experiment [1] lay in the range of 0.5 to 5 µM; in experiment [2] it was 0.5 to 5 µM; in experiment [3], 0.5 to 5 µM; in experiment [4], 5 to 10 µM; in experiment [5], 0.5 to 5 µM; in experiment [6], 5 to 10 µM.

By viability is commonly meant a read-out of living cells in per cent, often relative to untreated cells. As for `COc1ccc(OC2CCCN(c3c(C#N)c(NCc4ccc(Cl)cc4)nc4ccccc34)C2)cc1` (stereo not drawn) [Compound 3232CN, 2-(4-chlorobenzylamino)-3-cyano-4-[3-(4-methoxyphenoxy)piperidin-1-yl]quinoline], the viability at 4 µM in experiment [1] is 79.9%; in experiment [2], 79.9%; in experiment [3], 91.1%; in experiment [4] it was 98.7%; in experiment [5], 93.9%; in experiment [6] it was 104%. The viability at 10 µM in experiment [1] was 72.3%; in experiment [2], 73.5%; in experiment [3], 99.8%; in experiment [4], 90.3%; in experiment [5], 82.9%; in experiment [6], 99.4%.

On to `CCN(Cc1ccc(Cl)cc1)c1cc(N2CCC(NC(C)(C)C)CC2)c2ccccc2n1` [Compound 214, 2-(N-4-chlorobenzyl-N-ethylamino)-4-[4-(tert-butylamino)-piperidin-1-yl]-quinoline hydrochloride], for which the viability at 4 µM in experiment [1] is 0.3%; in experiment [2], 6.5%; in experiment [3] it was 26.8%; in experiment [4] it was 43%; in experiment [5] it was 0.2%; in experiment [6], 0.4%. Further, the viability at 10 µM in experiment [1] was found to be 0.4%; in experiment [2], 0.4%; in experiment [3] it was 16.4%; in experiment [4] it was 0.4%; in experiment [5] it was 0.3%; in experiment [6], 0.4%.

As for `CC(C)(C)NC1CCN(c2c(C#N)c(Nc3cccc(Nc4nccc(C(F)(F)F)n4)c3)nc3ccccc23)CC1` [Compound 540CN, 2-[3-(4-trifluoromethylpyrimidin-2-ylamino)phenylamino]-3-cyano-4-(4-tert-butylaminopiperidin-1-yl)quinoline], the 50% effective concentration (EC50) in experiment [1] was in the range of 5 to 10 µM; in experiment [2], 0.5 to 5 µM; in experiment [3] it was 0.5 to 5 µM; in experiment [4], 0.5 to 5 µM; in experiment [5], 0.5 to 5 µM; in experiment [6], 0.5 to 5 µM.

On to `Cc1c(NCc2ccc(Cl)cc2)nc2ccccc2c1N1CCC(NC(C)(C)C)CC1` [Compound 350, 2-(4-chlorobenzylamino)-3-methyl-4-[4-(tert-butylamino)piperidin-1-yl]quinoline], for which the concentration giving a half-maximal response (EC50) in experiment [1] lay within 0.5 to 5 µM; in experiment [2], 0.5 to 5 µM; in experiment [3], 5 to 10 µM; in experiment [4], 5 to 10 µM; in experiment [5], 0.5 to 5 µM; in experiment [6], 0.5 to 5 µM.

On to `CC(C)N(Cc1ccc(Cl)cc1)c1cc(N2CCC(NC(C)(C)C)CC2)c2ccccc2n1` [Compound 216, 2-(N-4-chlorobenzyl-N-isopropylamino)-4-[4-(tert-butylamino)-piperidin-1-yl]-quinoline hydrochloride], for which the viability at 4 µM was determined as 30.4% in experiment [1]; 78.4% in experiment [2]; 86.7% in experiment [3]; 74.1% in experiment [4]; 15.5% in experiment [5]; 78.1% in experiment [6]. Also, the viability at 10 µM in experiment [1] worked out at 0.4%; in experiment [2], 0.5%; in experiment [3], 0.5%; in experiment [4], 0.5%; in experiment [5], 0.3%; in experiment [6], 0.4%.

Regarding `Cc1cccc(OC2CCN(c3cc(NCc4ccc(Cl)cc4)nc4ccccc34)CC2)c1` [Compound 2946, 2-(4-chlorobenzylamino)-4-[4-(m-tolyloxy)piperidin-1-yl]quinoline hydrochloride], the concentration giving a half-maximal response (EC50) in experiment [1] lay in the range of 5 to 10 µM; in experiment [2], 5 to 10 µM; in experiment [3], 5 to 10 µM; in experiment [4], 5 to 10 µM; in experiment [5] it was 5 to 10 µM; in experiment [6] it was 0.5 to 5 µM.

`O[C@@H]1CCN(c2cc(NCc3ccc(Cl)cc3)nc3ccccc23)C1` [Compound 2988, (3R) 2-(4-chlorobenzylamino)-4-(3-hydroxypyrrolidin-1-yl)quinoline hydrochloride]: the EC50 in experiment [1] is 0.5 to 5 µM; in experiment [2], 0.5 to 5 µM; in experiment [3] it was 0.5 to 5 µM; in experiment [4], 0.5 to 5 µM; in experiment [5] it was 5 to 10 µM; in experiment [6] it was 0.5 to 5 µM.

In the case of `Cc1nccnc1OC1CCCN(c2c(C#N)c(NCc3ccc(Cl)cc3)nc3ccccc23)C1` (stereo not drawn) [Compound 3328CN, 2-(4-chlorobenzylamino)-3-cyano-4-{3-[(3-methylpyrazin-2-yl)oxy]piperidin-1-yl}quinoline], the viability at 4 µM in experiment [1] is 98.8%; in experiment [2], 93.8%; in experiment [3], 105%; in experiment [4] it was 125%; in experiment [5], 93.2%; in experiment [6], 92.7%. Moreover, the viability at 10 µM was 90.8% in experiment [1]; 85.5% in experiment [2]; 95.4% in experiment [3]; 104% in experiment [4]; 82.3% in experiment [5]; 87.3% in experiment [6].

Values taken from patent US10577362B2, “Substituted 2, 4-diamino-quinoline derivatives for use in the treatment of proliferative diseases” (GENOSCIENCE PHARMA, priority 2016, dated 2020).
